Like-named read-outs stand apart in the source and are kept apart here.
Columns and labels:
[1] = molecular target: ERK protein (Mus musculus, UniProt P63085); assay: TdF (Temperature Dependence Fluorescence, thermal shift) assay for ERK; type: binding
Text: Assays: TdF Assay for ERK […] The TdF assay was mainly conducted in the 96-well based CHROMO-4 real time fluorescence plate reader (BioRad). The Sypro Orange (Sigma-Aldrich), environmentally sensitive fluorescence dye, was used to monitor the protein folding-unfolding transition. Protein-ligand binding was gauged by the change (or shift) in the unfolding transition temperature (ΔTm) acquired at protein alone with respect to protein in the presence of ligand of interest. Compound of interest was first prepared in DMSO stock (typical concentration: 10 mM). […] Final percentage of DMSO resided in the sample was 2%. The sample plate was heated from 30° C. to 90° C. with thermal ramping rate of 1° C./min. […] The instrument thermal stability was ±0.2° C. The melting temperatures (Tm) for ERK protein under aforementioned conditions occurred at 61.0±0.2° C. and 64.8±02° C. respectively. Theoretical Basis for TdF-Based Ligand Binding Affinity Constant […] In brief, the binding constant of the ligand at the Tm is expressed as below: [formula] where T0 is the midpoint of unfolding for unliganded protein and Tm is the midpoint of unfolding in presence of ligand. [LTm] is free ligand at Tm. The ΔHu and ΔCpu are the enthalpy of unfolding and heat capacity change of unfolding for the protein respectively. Following algorithm derived by Winsor and coworker, the T0, ΔHu and ΔCpu can be determined separately from nonlinear regression fitting the protein alone melting curve: Where F(T) is the observed fluorescence intensity at any temperature T, Yn and Yu are the predicted fluorescence intensities for fully folded and unfolded protein, respectively; mn and mu are slope correction for changes in Yn and Yu with respect to changes in temperature (analogously replace T0 with Tm in the above equation for liganded protein to yield Tm). […] [formula] where ΔHL (T) is the van't Hoff enthalpy of ligand binding at temperature T and ΔCpL is the heat capacity upon ligand binding. For simplicity, the ΔCpL and ΔHL (T) were set to zero and −7 kcal/mol respectively.

[2] = molecular target: inactive ERK2 (unphosphorylated Mouse ERK2 protein) (Mus musculus (Mouse), UniProt P63085); assay: Coupled ERK2 (cERK) assay, coupled MEK1/ERK2 IMAP assay; type: biochemical; conditions: 30 μM ATP
Description: 14 μl of kinase buffer (10 mM Tris.HCl pH 7.2, 10 mM MgCl2, 0.01% Tween-20, 1 mM DTT) containing 0.4 ng unphosphorylated Mouse ERK2 protein was added to each well of a black 384-well assay plate. […] DMSO concentration during initial incubation is 6.7%. ERK2 activity was determined to be insensitive to DMSO concentrations up to 20%. ERK2 was then activated and it's kinase activity measured by the addition of 10 μl kinase buffer with the following components (final concentration per reaction): 2 ng active (phosphorylated) human MEK1 protein and 4 μM (total) ERK2 IMAP substrate peptides (3.9 μM unlabeled […]-CONH2 and 100 nM […](5-carboxyfluorescein)-CONH2) and 30 μM ATP. DMSO concentration during ERK activation was 4%. After one hour, reactions were terminated by addition of 60 μl IMAP detections beads in binding buffer (Molecular Devices). Binding was allowed to equilibrate for 30 minutes before reading the plate on an LJL Analyst Fluorescence Polarization plate reader. […] Active compounds were reconfirmed in an independent assay.

[3] = molecular target: fully phosphorylated, active Mouse ERK2 protein (Mus musculus (Mouse), UniProt P63085); assay: Active ERK2 (aERK) IMAP assay, condition 1; type: biochemical; conditions: aERK assay condition 1, 30 μM ATP
Description: Active ERK2 (aERK) Assay: (Unless Indicated Otherwise, the Data Provided for aERK was obtained using Condition 1)
Activated ERK2 activity was also determined in the IMAP assay format using the procedure outlined above. […] Reactions proceeded for 30 minutes before termination by addition of 60 μl IMAP detection beads in binding buffer. Plates were read as above after 30 minute binding equilibration.

[4] = 3 μM ERK protein, uncertainty estimated ±50%, read-out: Kd TdF

Chain of inactive ERK2 (unphosphorylated Mouse ERK2 protein) (P63085 whole entry): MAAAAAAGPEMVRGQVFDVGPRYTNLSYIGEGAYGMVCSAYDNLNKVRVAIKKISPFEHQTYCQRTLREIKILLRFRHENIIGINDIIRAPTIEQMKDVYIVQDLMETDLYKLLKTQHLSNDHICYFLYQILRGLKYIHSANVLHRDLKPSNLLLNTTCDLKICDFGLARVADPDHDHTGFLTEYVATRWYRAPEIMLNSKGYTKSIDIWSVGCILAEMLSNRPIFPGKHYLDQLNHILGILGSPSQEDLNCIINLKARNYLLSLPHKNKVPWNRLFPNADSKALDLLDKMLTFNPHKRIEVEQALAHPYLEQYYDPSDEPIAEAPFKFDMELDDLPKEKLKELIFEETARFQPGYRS
Chain of fully phosphorylated, active Mouse ERK2 protein (P63085 whole entry): as above
Chain of ERK protein (P63085 2-358 limits assumed): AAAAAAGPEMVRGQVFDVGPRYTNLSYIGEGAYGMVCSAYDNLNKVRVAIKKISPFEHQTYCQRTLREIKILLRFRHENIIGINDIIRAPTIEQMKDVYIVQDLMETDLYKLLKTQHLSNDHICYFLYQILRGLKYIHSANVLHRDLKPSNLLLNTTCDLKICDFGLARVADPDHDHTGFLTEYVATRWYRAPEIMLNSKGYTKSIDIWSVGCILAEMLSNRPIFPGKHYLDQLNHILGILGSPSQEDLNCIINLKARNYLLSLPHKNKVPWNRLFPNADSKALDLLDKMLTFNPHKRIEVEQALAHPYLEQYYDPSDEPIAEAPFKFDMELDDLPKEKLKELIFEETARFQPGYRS

Compound	Kd [1, 4]	IC50 [2]	IC50 [3]	Kd ([1]; read-out: Kd TdF, 3 μM ERK protein, uncertainty estimated ±50%)
O=C(N[C@@H]1CCCN(Cc2ccccc2F)C1)c1ccc2[nH]nc(-c3ccnc(Cl)c3)c2c1	0.58 nM	25 nM	26.1 nM	
CC(C)Oc1ccc(-c2n[nH]c3ccc(C(=O)N[C@@H]4CCCN(Cc5ccccc5F)C4)cc23)cc1	1.2 nM	443 nM	275 nM	
CC(C)Oc1ccc(-c2n[nH]c3ccc(C(=O)N[C@@H]4CCCN(Cc5ccccc5F)C4)cc23)cn1	2 nM	124 nM	77.9 nM	
O=C(N[C@@H]1CCCN(Cc2ccccc2F)C1)c1ccc2[nH]nc(-c3ccc4c(c3)CCO4)c2c1	0.61 nM	48.6 nM	52.1 nM	
O=C(N[C@H]1CCCN(Cc2ccccc2)C1)c1ccc2[nH]nc(-c3ccncc3)c2c1	118 nM	304 nM	485 nM	
O=C(N[C@@H]1CCCN(Cc2ccccc2)C1)c1ccc2[nH]nc(-c3ccncc3)c2c1	0.3 nM	2.9 nM	5.8 nM	
O=C(N[C@@H]1CCCN(Cc2ccccc2F)C1)c1ccc2[nH]nc(-c3ccncc3)c2c1	0.6 nM	1.1 nM	5.5 nM	
COc1cc(-c2n[nH]c3ccc(C(=O)N[C@@H]4CCCN(Cc5ccccc5F)C4)cc23)ccn1	0.81 nM		112 nM	
O=C(N[C@@H]1CCCN(Cc2ccccc2F)C1)c1ccc2[nH]nc(-c3ccnc(C4CC4)c3)c2c1	0.4 nM		33.2 nM	
COc1cccc(F)c1CN1CCC[C@@H](NC(=O)c2ccc3[nH]nc(-c4ccc5sccc5c4)c3c2)C1	0.15 nM		807 nM	
COc1cccc(F)c1CN1CCC[C@@H](NC(=O)c2ccc3[nH]nc(-c4ccc5occc5c4)c3c2)C1	0.21 nM		495 nM	
COc1cccc(F)c1CN1CCC[C@@H](NC(=O)c2ccc3[nH]nc(-c4ccc5cn[nH]c5c4)c3c2)C1	0.27 nM		163 nM	
COc1cccc(F)c1CN1CCC[C@@H](NC(=O)c2ccc3[nH]nc(-c4ccc(S(=O)(=O)N(C)C)cc4)c3c2)C1	2.63 nM		359 nM	
COc1cccc(F)c1CN1CCC[C@@H](NC(=O)c2ccc3[nH]nc(-c4cccc(NC(C)=O)c4)c3c2)C1	1.38 nM		286 nM	
COc1cccc(F)c1CN1CCC[C@@H](NC(=O)c2ccc3[nH]nc(-c4ccc(C(C)=O)cc4)c3c2)C1	0.9 nM		189 nM	
COc1cccc(F)c1CN1CCC[C@@H](NC(=O)c2ccc3[nH]nc(-c4cccc(C(C)=O)c4)c3c2)C1	2.01 nM		609 nM	
COc1cccc(F)c1CN1CCC[C@@H](NC(=O)c2ccc3[nH]nc(-c4ccc(C#N)cc4)c3c2)C1	0.24 nM		155 nM	
COc1cccc(F)c1CN1CCC[C@@H](NC(=O)c2ccc3[nH]nc(-c4cccc(C#N)c4)c3c2)C1	0.83 nM		264 nM	
COc1cccc(F)c1CN1CCC[C@@H](NC(=O)c2ccc3[nH]nc(-c4ccc(S(C)(=O)=O)cc4)c3c2)C1	1.37 nM		195 nM	
COc1cccc(F)c1CN1CCC[C@@H](NC(=O)c2ccc3[nH]nc(-c4ccc(N)c(OC(C)=O)c4)c3c2)C1	6.5 nM		483 nM	
Cc1cc(-c2n[nH]c3ccc(C(=O)N[C@@H]4CCCN(Cc5csc6ccccc56)C4)cc23)ccn1	0.53 nM		18.7 nM	

Compound	Kd [1, 4]	IC50 [2]	IC50 [3]	Kd ([1]; read-out: Kd TdF, 3 μM ERK protein, uncertainty estimated ±50%)
Cc1cc(-c2n[nH]c3ccc(C(=O)N[C@@H]4CCCN(Cc5ccccc5Cl)C4)cc23)ccn1	0.2 nM		28.1 nM	
CC(=O)n1cc(CN2CCC[C@@H](NC(=O)c3ccc4[nH]nc(-c5ccnc(C)c5)c4c3)C2)c2ccccc21	1.95 nM		154 nM	
Cc1cc(-c2n[nH]c3ccc(C(=O)N[C@@H]4CCCN(Cc5c(C)cccc5C)C4)cc23)ccn1	0.13 nM		89 nM	
Cc1cc(-c2n[nH]c3ccc(C(=O)N[C@@H]4CCCN(Cc5cn(C)c6ccccc56)C4)cc23)ccn1	1.38 nM		21.5 nM	
Cc1cc(-c2n[nH]c3ccc(C(=O)N[C@@H]4CCCN(Cc5cc6ccccc6n5C)C4)cc23)ccn1	0.21 nM		41.7 nM	
CCn1cc(-c2n[nH]c3ccc(C(=O)N[C@@H]4CCCN(Cc5c(F)cccc5OC)C4)cc23)cn1	1.59 nM		114 nM	
COc1cccc(F)c1CN1CCC[C@@H](NC(=O)c2ccc3[nH]nc(-c4ccc5cncn5c4)c3c2)C1	0.1 nM		4.02 nM	
COc1cccc(F)c1CN1CCC[C@@H](NC(=O)c2ccc3[nH]nc(-c4ccc5nc(C)oc5c4)c3c2)C1	0.1 nM		16.4 nM	
COc1cccc(F)c1CN1CCC[C@@H](NC(=O)c2ccc3[nH]nc(-c4ccc5oc(C)nc5c4)c3c2)C1	0.6 nM		45.6 nM	
Cc1cc(-c2n[nH]c3ccc(C(=O)N[C@@H]4CCCN(Cc5cc6ccccc6o5)C4)cc23)ccn1	1.43 nM		15.1 nM	
Cc1cc(-c2n[nH]c3ccc(C(=O)N[C@@H]4CCCN(Cc5cc(F)c(Cl)cc5Cl)C4)cc23)ccn1	9.76 nM		660 nM	
Cc1cc(-c2n[nH]c3ccc(C(=O)N[C@@H]4CCCN(Cc5cc6ccccc6s5)C4)cc23)ccn1	3.97 nM		90.1 nM	
Cc1cc(-c2n[nH]c3ccc(C(=O)N[C@@H]4CCCN(Cc5ccncn5)C4)cc23)ccn1	20.5 nM		507 nM	
COc1cccc(CN2CCC[C@@H](NC(=O)c3ccc4[nH]nc(-c5ccnc(C)c5)c4c3)C2)n1	2.33 nM		220 nM	
Cc1cc(-c2n[nH]c3ccc(C(=O)N[C@@H]4CCCN(C5CCc6ccccc65)C4)cc23)ccn1 (some centres unmarked)	0.28 nM		65.4 nM	
COc1cccc(F)c1CN1C[C@H](C)C[C@@H](NC(=O)c2ccc3[nH]nc(-c4ccnc(C)c4)c3c2)C1	3.33 nM		204 nM	
COc1cccc(F)c1CN1C[C@@H](C)C[C@@H](NC(=O)c2ccc3[nH]nc(-c4ccc5nccn5c4)c3c2)C1	0.01 nM		5.84 nM	
COc1cccc(F)c1CN1C[C@H](C)C[C@@H](NC(=O)c2ccc3[nH]nc(-c4ccc5nccn5c4)c3c2)C1	0.03 nM		10.6 nM	
COc1cccc(F)c1CN1C[C@@H](C)C[C@@H](NC(=O)c2ccc3[nH]nc(-c4ccc5nn(C)cc5c4)c3c2)C1	0.02 nM		6.1 nM	
Cc1cc(-c2n[nH]c3ccc(C(=O)N[C@@H]4CCCN(CCc5ccccc5C(F)(F)F)C4)cc23)ccn1			86.9 nM	2.2 nM

Reference: patent publication US8999957B2, “Heterocyclic compounds as ERK inhibitors” (Merck Sharp & Dohme Corp., priority 2010, dated 2015)
